This passage reports IC50 results from patent US20260083750A1, “SMALL MOLECULE INHIBITORS OF KRAS PROTEINS” (MERCK SHARP & DOHME LLC, priority 2022, published 2026).

Holding throughout (experiment): SOS-catalyzed nucleotide exchange assay (Procedure B, BODIPY FL GDP displacement)
What all share (type): biochemical

The target of test [1] is T1, KRAS G12V (amino acids 1-169) (Homo sapiens, UniProt P01116, G12V).
T1 construct: made in house; host or cells: E. coli
The note with it: Procedure B (Example Nos. 18, 21, 23, 33-34); 1 hour incubation, SOS1 + GMPPNP; read-out: KRAS G12V GNE IC50. As for the experimental part: (§1) Procedure for SOS-Catalyzed Nucleotide Exchange Assay for KRAS-G12C/D/V (Procedure B)
(§2) Recombinant KRAS G12C (amino acids 1-169, SEQ ID NO:8), KRAS G12D (amino acids 1-169, SEQ ID NO:9), KRAS G12V (amino acids 1-169, SEQ ID NO:10) and SOS1 (amino acids 564-1049, SEQ ID NO:11) proteins were expressed in E. coli and purified by affinity chromatography. To prepare each BODIPY™ FL GDP-bound KRAS mutant protein, 50 μM KRAS mutant proteins were incubated with 0.5 mM BODIPY™ FL GDP (Invitrogen, G22360) in a loading buffer (20 mM Tris-HCl pH 7.5, 50 mM NaCl, 1 mM DTT and 2.5 mM EDTA) for 1 hour on ice. After the incubation, MgCl2 was added to a final concentration of 10 mM, followed by an incubation at room temperature for 30 minutes. The mixtures were allowed to pass through a NAP-5 column to remove free nucleotides and purified BODIPY™ FL GDP-bound KRAS G12C, G12D and G12V proteins were used for compound evaluation.
(§3) The inhibitory activity of compounds on recombinant KRAS mutants is measured by the displacement of the bound BODIPY™ GDP. Specifically, 2.5 nM of each BODIPY™ FL GDP-bound KRAS mutant complex was incubated with various concentrations of compound in a reaction buffer (20 mM Tris-HCl pH 7.5, 100 mM NaCl, 1 mM MgCl2, 2 mM DTT, 0.1% Tween 20) at 25° C. for 1 hour. After the incubation, recombinant SOS1 and GMPPNP (Jena Bioscience GmbH, NU-401) were added and incubated at room temperature for 30 minutes to proceed SOS1-dependent GDP-GTP exchange reaction on KRAS mutants. Displacement of BODIPY™ FL GDP by Guanosine-5′-[(β,γ)-imido]triphosphate, Tetralithium salt (GMPPNP) was measured by calculating the ratio of fluorescence intensities of BODIPY™ FL before and after the exchange reaction. […] Dose response curves were analyzed using a 4-parameter logistic model to calculate IC50 values.
(§4) For Example Nos. 1-17, 19-20, 22, 24-32, and 35-53 nucleotide exchange assays for KRAS G12D, G12C, G12V, and G13D were performed according to Procedure A. For Example Nos. 18, 21, 23, and 33-34, nucleotide exchange assays for KRAS G12D, G12C, and G12V were performed according to Procedure B.

Test [2] has as its target T2, KRAS G12C (amino acids 1-169) (Homo sapiens, UniProt P01116, G12C).
T2 construct: made in house; host or cells: E. coli
Conditions: Procedure B (Example Nos. 18, 21, 23, 33-34); 1 hour incubation, SOS1 + GMPPNP; read-out: KRAS G12C GNE IC50. The protocol: as §1, §2, §3, §4

In test [3] the target is T3, KRAS G12D (amino acids 1-169) (Homo sapiens, UniProt P01116, G12D).
T3 construct: made in house; host or cells: E. coli
The note with it: Procedure B (Example Nos. 18, 21, 23, 33-34); 1 hour incubation, SOS1 + GMPPNP; read-out: KRAS G12D GNE IC50. The protocol: as §1, §2, §3, §4

Structures are written as SMILES.

T3 sequence (P01116 with tags, fused parts or gaps isoform P01116-2 G12D): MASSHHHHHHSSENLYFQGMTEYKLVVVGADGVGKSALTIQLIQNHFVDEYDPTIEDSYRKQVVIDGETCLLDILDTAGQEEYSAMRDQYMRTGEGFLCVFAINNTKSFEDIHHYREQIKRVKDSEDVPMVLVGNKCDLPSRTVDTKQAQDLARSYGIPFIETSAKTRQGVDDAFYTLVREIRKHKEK
T1 sequence (P01116 with tags, fused parts or gaps isoform P01116-2 G12V): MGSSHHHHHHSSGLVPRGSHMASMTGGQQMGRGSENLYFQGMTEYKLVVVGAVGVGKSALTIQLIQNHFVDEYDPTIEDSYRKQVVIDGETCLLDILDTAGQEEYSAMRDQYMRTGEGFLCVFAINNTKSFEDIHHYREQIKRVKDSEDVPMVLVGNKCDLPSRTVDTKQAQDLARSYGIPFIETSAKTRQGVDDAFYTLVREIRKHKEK
T2 sequence (P01116 with tags, fused parts or gaps isoform P01116-2 G12C): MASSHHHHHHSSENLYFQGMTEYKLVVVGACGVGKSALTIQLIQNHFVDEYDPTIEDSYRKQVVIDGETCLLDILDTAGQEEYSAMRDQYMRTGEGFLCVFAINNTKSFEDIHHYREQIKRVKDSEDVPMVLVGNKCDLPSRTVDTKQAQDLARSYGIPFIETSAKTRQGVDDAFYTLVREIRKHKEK

For `N#Cc1c(N)sc2c(F)cc(F)c(-c3ncc4c(N5CCCOCC5)nc(OC[C@@]56CCCN5C[C@H](F)C6)nc4c3F)c12` [Ex. 23, 2-amino-5,7-difluoro-4-(8-fluoro-2-(((2R,7aS)-2-fluorotetrahydro-1H-pyrrolizin-7a(5H)-yl)methoxy)-4-(1,4-oxazepan-4-yl)pyrido[4,3-d]pyrimidin-7-yl)benzo[b]thiophene-3-carbonitrile], the figures for the IC50 in test [1], in test [2] and in test [3] were 76.9 nM, 33.4 nM and 140 nM, respectively.

`N#Cc1c(N)sc2c(F)ccc(-c3c(C(F)(F)F)cc4c(N5CCCOCC5)nc(OC[C@@]56CCCN5C[C@H](F)C6)nc4c3F)c12` [Ex. 34, 2-amino-7-fluoro-4-(8-fluoro-2-(((2R,7aS)-2-fluorotetrahydro-1H-pyrrolizin-7a(5H)-yl)methoxy)-4-(1,4-oxazepan-4-yl)-6-(trifluoromethyl)quinazolin-7-yl)benzo[b]thiophene-3-carbonitrile]: the IC50 in test [1] was determined as 1.67 nM; in test [2], 1.8 nM; in test [3], 3.43 nM.

In the case of `C[C@H]1CCOCCN1c1nc(OC[C@@]23CCCN2C[C@H](F)C3)nc2c(F)c(-c3ccc(F)c4sc(N)c(C#N)c34)ncc12` [compound 21, 2-amino-7-fluoro-4-(8-fluoro-2-(((2R,7aS)-2-fluorotetrahydro-1H-pyrrolizin-7a(5H)-yl)methoxy)-4-((S)-5-methyl-1,4-oxazepan-4-yl)pyrido[4,3-d]pyrimidin-7-yl)benzo[b]thiophene-3-carbonitrile], the IC50 in test [1] amounted to 63.6 nM; in test [2], 20.8 nM; in test [3], 136 nM.

The term IC50 denotes the midpoint of a concentration-inhibition curve.
